Each structure is given as a SMILES string. ≈ marks a conversion by molar mass, not a printed value. Like-named read-outs stand apart in the source and are kept apart here.

Data set [1] relates to ovalbumin-induced asthma attack. Briefly: Inhibition of the antigen-induced early-phase reaction (ovalbumin-induced bronchospasm, Konzett-Rössler) in the presensitized guinea pig. Format: in vivo, albino guinea pigs. As to conditions: Cavia porcellus, iv, protected = asthma reaction reduced by at least 40% relative to control; for responders at 10 mg/kg: 10 mg/kg i.v. 15 minutes before antigen; for responders at 25 mg/kg: 25 mg/kg i.v. 15 minutes before antigen. The protocol: Albino guinea pigs of both sexes having a body weight of 180 to 220 g were sensitized on two successive days by subcutaneous administration of 1 mg of ovalbumin (0.1% strength dissolved in physiological saline solution) in each case. 20 days later, the experiment was carried out according to the method of Konzett and […] (Arch. exp. Path. und Pharmak. (1940) 195: 75). For this purpose, the animals were anesthetized with pentobarbital, artificially ventilated, treated with alcuronium chloride to exclude spontaneous respiration and divided into groups of 6 animals in each case. By means of intravenous administration of ovalbumin as an antigen in a dose of 1 mg/kg, a long-lasting asthma attack was induced as a result of an acute bronchospasm induced by mediators in the course of the asthmatic early reaction, the intensity of which was quantified by means of the contraction height in the thoracogram. The test preparations were likewise administered intravenously 15 minutes before antigen provocation. Instead of this, the animals of the control group received pure 0.9% strength saline solution. To assess the action of the preparation, the number of animals of the respective collective in which the asthma reaction was reduced by at least 40% relative to the control animals was determined.

The test system of data set [2] is PAF-induced contraction of isolated lung strips. Briefly: Anticonstrictive action against PAF-induced contraction of isolated lung strips. Also noted: species or system albino guinea pigs. As to conditions: Cavia porcellus; guinea pig lung strips, PAF 10^−9 g/ml, n=6; read-out: Anticonstrictive action (IC50) PAT lung. The source says:
(§1) The inhibitory action of the compounds of formula I on the proinflammatory early-phase mediators histamine, PAF and leukotriene D4 (LTD4) was investigated on isolated segments of the respiratory tract organs of albino guinea pigs, the inhibition of the contractions which can be caused by these mediators being used as measurement parameters.
(§2) To carry out the experiment, freshly prepared organs of male animals were used in each case. The trachea was divided into its rings, of which 5 tracheal rings in each case were linked with silk thread to give a chain, suspended under a tension of 0.5 g in an organ bath containing Tyrode solution at 37° C. through which was bubbled 95% O2/5% CO2, and contracted by addition of histamine dihydrochloride (bath concentration: 3×10^−7 g/ml) in the absence (control experiment) or in the presence of the test substances.
(§3) The lungs were cut longitudinally into 2 to 3 strips, using which the process as described above was carried out. The tension, however, was 1 g and the contraction was induced by PAF or LTD4 at a bath concentration of 10^−9 or 10^−8 g/mi.
(§4) Each experiment comprised the parallel investigation of 6 organ preparations (n=6).
(§5) The assessment of the action of the preparation was carried out with the aid of the IC50 values, which represent that concentration in μg/ml at which the organ contraction produced in the control experiment was reduced by half.

For data set [3], the system named is histamine-induced contraction of isolated trachea. Briefly: Anticonstrictive action against histamine-induced contraction of isolated tracheal ring chains. Also noted: species or system albino guinea pigs. Particulars: Cavia porcellus; guinea pig tracheal chain, histamine dihydrochloride 3×10^−7 g/ml, n=6.
Source text: as §1, §2, §4, §5

The subject of data set [4] is LTD4-induced contraction of isolated lung strips. Briefly: Anticonstrictive action against LTD4-induced contraction of isolated lung strips. Also noted: species or system albino guinea pigs. As to conditions: Cavia porcellus; guinea pig lung strips, LTD4 10^−8 g/ml, n=6.
Source text: as §1, §2, §3, §4, §5

Data set [5] deals with human eosinophilic granulocytes. Nature of the data set: Inhibition of eosinophil activation by late-phase mediators, lucigenin-dependent chemiluminescence. Format: cell-based. Particulars: 0.5 h, test substance 100 μM, human eosinophils, CL over 30 minutes. An excerpt: The inhibitory action of the xanthines of formula I on the activation ability of human eosinophilic granulocytes by means of the late-phase mediators IL-5, GM-CSF, C5a and PAF was investigated with the aid of the lucigenin-dependent chemiluminescence (CL) reaction.
For this purpose, purified eosinophils were obtained from venous human blood according to known processes (Arch. Dermatol. Res. (1987) 279: 470-477 and J. Invest. Dermatol. (1986) 86: 523-528), pretreated with the test substances at the concentration 100 μM or with pure water (positive control (A)) at 37° C. for 10 minutes and then activated with IL-5 (10^2 U/ml), GM-CSF (10^3 U/ml), C5a (10^−7 M) or PAF (10^−6 M) or treated with water for the determination of the basal activity (B). The CL reaction was monitored over the course of 30 minutes measuring at 37° C. The residual activity of the cells pretreated with the test substances was calculated according to the following formula in percent of that of the positive control: [formula]
CLX describes the activity after stimulation of the cells pretreated with the xanthines,
CLA describes the activity after stimulation of the cells pretreated with water and
CLB describes the basal activity of unstimulated cells pretreated with water.

Setting [6] is: read-out: Protected animals after i.v. administration, % proportion.
Setting [7] is: read-out: Protected animals after i.v. administration, number (converted).
[8] abbreviates: C5a 10^−7 M, read-out: Residual activity in % of the positive control A after stimulation with C5a.
Setting [9] is: GM-CSF 10^3 U/ml, read-out: Residual activity in % of the positive control A after stimulation with GM-CSF.
[10] abbreviates: IL-5 10^2 U/ml, read-out: Residual activity in % of the positive control A after stimulation with IL-5.
The mark [11] stands for this setting: PAF 10^−6 M, read-out: Residual activity in % of the positive control A after stimulation with PAF.

The melting point is the temperature, or range, at which the solid turns liquid. Consider `Cn1c(=O)n(CC(C)(C)O)c(=O)c2[nH]cnc21` [Example 1, 1-(2-Hydroxy-2-methylpropyl)-3-methylxanthine], for which the melting point fell in the range of 215 to 217 °C.

With `CCn1c(=O)n(CC(C)(C)O)c(=O)c2[nH]cnc21` [Example 2, 3-Ethyl-1-(2-hydroxy-2-methylpropyl)xanthine], the responders at 10 mg/kg in data set [1] (setting [6]) was 33%; in data set [1] (setting [7]), 33.3%. For the same compound, the responders at 25 mg/kg in data set [1] (setting [6]) is 67%; in data set [1] (setting [7]), 66.7%.

`Cn1c(=O)n(CCC(C)(C)O)c(=O)c2[nH]cnc21` [Example 3, 1-(3-Hydroxy-3-methylbutyl)-3-methylxanthine] registered a melting point of 203 to 205 °C.

For orientation: IC50 means the concentration that gives 50% inhibition. The compound `CCn1c(=O)n(CCC(C)(C)O)c(=O)c2[nH]cnc21` [Example 4, 3-Ethyl-1-(3-hydroxy-3-methylbutyl)xanthine] came in with a melting point of 241 to 243 °C. Also, in data set [1] (setting [6]), the responders at 10 mg/kg stood at 17% and the responders at 25 mg/kg turned out to be 50%. Moreover, in data set [1] (setting [7]), the responders at 10 mg/kg is 16.7% and the responders at 25 mg/kg was 50%. The IC50 in data set [2] lay in the range of 1 to 3 µg/mL (≈ 3.76 to 11.3 µM). Inhibition in data set [3] was half-maximal at 10 µg/mL (≈ 37.6 µM) (IC50).

For the compound `Cn1c(=O)n(CCCC(C)(C)O)c(=O)c2[nH]cnc21` [Example 5, 1-(4-hydroxy-4-methylpentyl)-3-methylxanthine], the melting point is 188 to 189 °C. In addition, the IC50 in data set [2] was determined as 3 µg/mL (≈ 11.3 µM). The IC50 in data set [4] came out at 10 µg/mL (≈ 37.6 µM). This compound also displayed an IC50 in data set [3] of 30 µg/mL (≈ 113 µM).

Turning to `CCn1c(=O)n(CCCC(C)(C)O)c(=O)c2[nH]cnc21` [Example 6, 3-Ethyl-1-(4-hydroxy-4-methylpentyl)xanthine], the melting point was 214 to 216 °C. Moreover, in data set [2], the IC50 is 3 µg/mL (≈ 10.7 µM). The same compound returned an IC50 in data set [4] of 1 to 3 µg/mL (≈ 3.57 to 10.7 µM). In addition, it took 30 µg/mL (≈ 107 µM) to reach half-maximal inhibition in data set [3] (IC50).

`Cn1c(=O)n(CCCCC(C)(O)CO)c(=O)c2[nH]cnc21` (stereo not drawn) [Example 8, 1-(5,6-Dihydroxy-5-methylhexyl)-3-methylxanthine] yielded a melting point of 181 to 182 °C. Besides, in data set [1] (setting [6]), the responders at 10 mg/kg turned out to be 50% and the responders at 25 mg/kg worked out at 50%. Besides, in data set [1] (setting [7]), the responders at 10 mg/kg was 50% and the responders at 25 mg/kg is 50%. In addition, the IC50 in data set [2] is 6 µg/mL (≈ 20.2 µM). Also, the IC50 in data set [4] was 10 µg/mL (≈ 33.7 µM). Besides, the IC50 in data set [3] was 10 to 30 µg/mL (≈ 33.7 to 101 µM).

`CCC(C)(O)CCCCn1c(=O)c2[nH]cnc2n(C)c1=O` (stereo not drawn) [Example 9, 1-(5-Hydroxy-5-methylheptyl)-3-methylxanthine] yielded a melting point of 169 to 170 °C. For the same compound, in data set [1] (setting [6]), the responders at 10 mg/kg worked out at 67% and the responders at 25 mg/kg came to 83%. Moreover, in data set [1] (setting [7]), the responders at 10 mg/kg is 66.7% and the responders at 25 mg/kg is 83.3%. In addition, the IC50 in data set [2] turned out to be 10 µg/mL (≈ 34 µM). The half-maximal inhibitory concentration (IC50) in data set [4] fell in the range of 10 to 30 µg/mL (≈ 34 to 102 µM). For the same compound, the IC50 in data set [3] is 10 to 30 µg/mL (≈ 34 to 102 µM).

In the case of `CCn1c(=O)n(CCCCC(C)(C)O)c(=O)c2[nH]cnc21` [Example 10, 3-Ethyl-1-(5-hydroxy-5-methylhexyl)xanthine], the melting point is 180 to 182 °C.

The compound `CCn1c(=O)n(CCCCC(C)(O)CC)c(=O)c2[nH]cnc21` (stereo not drawn) [Example 11, 3-Ethyl-1-(5-hydroxy-5-methylheptyl)xanthine] yielded a melting point of 165 to 166 °C.

Turning to `Cn1c(=O)n(CCCCCC(C)(C)O)c(=O)c2[nH]cnc21` [Example 12, 1-(6-Hydroxy-6-methylheptyl)-3-methylxanthine], the melting point fell in the range of 166 to 167 °C. In addition, in data set [1] (setting [6]), the responders at 10 mg/kg was found to be 50% and the responders at 25 mg/kg worked out at 67%. Also, in data set [1] (setting [7]), the responders at 10 mg/kg is 50% and the responders at 25 mg/kg was 66.7%. Further, the IC50 in data set [2] fell in the range of 3 to 6 µg/mL (≈ 10.2 to 20.4 µM). In addition, the IC50 in data set [4] was 6 to 10 µg/mL (≈ 20.4 to 34 µM). The IC50 in data set [3] lay in the range of 3 to 10 µg/mL (≈ 10.2 to 34 µM).

In turn, `CCn1c(=O)n(CCCCCC(C)(C)O)c(=O)c2[nH]cnc21` [Example 13, 3-Ethyl-1-(6-hydroxy-6-methylheptyl)xanthine] showed a melting point of 163 to 165 °C. For the same compound, the IC50 in data set [2] was 1 µg/mL (≈ 3.24 µM). The compound further gave an IC50 in data set [3] of 10 to 30 µg/mL (≈ 32.4 to 97.3 µM).

As for `CC(=O)CCCCn1c(=O)c2c(ncn2C)n(C)c1=O` [Pentoxifylline, 3,7-dimethyl-1-(5-oxohexyl)xanthine, reference compound], the responders at 10 mg/kg in data set [1] (setting [6]) was 17%; in data set [1] (setting [7]), 16.7%. In addition, the responders at 25 mg/kg in data set [1] (setting [6]) is 33%; in data set [1] (setting [7]), 33.3%. Also, the IC50 was 3 µg/mL (≈ 10.8 µM) in data set [2], 30 to 60 µg/mL (≈ 108 to 216 µM) in data set [4] and 30 to 60 µg/mL (≈ 108 to 216 µM) in data set [3]. Further, the activity at 100 µM in data set [5] (setting [8]) worked out at 56%; in data set [5] (setting [9]), 70%; in data set [5] (setting [10]), 57%; in data set [5] (setting [11]), 45%.

Take `CCOCn1cnc2c1c(=O)n(CCCCC(C)(C)O)c(=O)n2C` [Torbafylline, 7-ethoxymethyl-1-(5-hydroxy-5-methylhexyl)-3-methylxanthine, reference compound]: the responders at 10 mg/kg in data set [1] (setting [6]) and in data set [1] (setting [7]) was 0% throughout. Also, the responders at 25 mg/kg in data set [1] (setting [6]) and in data set [1] (setting [7]) was 0% each time. Further, the results for the IC50 in data set [2], in data set [4] and in data set [3] were 3 to 6 µg/mL (≈ 8.87 to 17.7 µM), 10 to 30 µg/mL (≈ 29.6 to 88.7 µM) and 60 µg/mL (≈ 177 µM), respectively. For the same compound, the activity at 100 µM in data set [5] (setting [8]) was determined as 51%; in data set [5] (setting [9]), 125%; in data set [5] (setting [10]) it was 58%; in data set [5] (setting [11]), 58%.

(Values after patent publication US20020010333A1, “Use of xanthine derivatives for reducing the pathological hyperreactivity of eosinophilic granulocytes, novel xanthine compounds and process for their preparation” (Hoechst Aktiengesellschaft, priority 1994, published 2002).)
